The text below walks through data of US9758492B2, “IDO inhibitors” (Bristol-Myers Squibb Company, priority 2013, dated 2017).

SMILES strings stand for the structures.

Chain of IDO (P14902 whole entry): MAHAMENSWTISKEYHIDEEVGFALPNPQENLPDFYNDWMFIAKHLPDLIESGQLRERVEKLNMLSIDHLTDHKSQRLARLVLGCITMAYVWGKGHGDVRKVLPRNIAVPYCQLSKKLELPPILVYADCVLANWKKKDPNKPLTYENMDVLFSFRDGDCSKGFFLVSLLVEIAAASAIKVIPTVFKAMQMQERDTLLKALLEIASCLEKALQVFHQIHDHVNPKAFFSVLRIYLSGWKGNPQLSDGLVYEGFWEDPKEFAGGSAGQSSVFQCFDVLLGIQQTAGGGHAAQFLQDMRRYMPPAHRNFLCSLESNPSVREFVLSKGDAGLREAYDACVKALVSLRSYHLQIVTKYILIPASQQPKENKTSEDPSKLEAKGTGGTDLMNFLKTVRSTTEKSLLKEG

The experiment has as its target IDO (Homo sapiens, UniProt P14902). The experiment in a line: LLE_IDO_ABS_DR (IDO assay).
As to `CC(C)CN(CC(C)C)c1ccc(-c2ccccc2-c2nnn[nH]2)cc1NC(=O)NC(C)C` [Example 246, 1-(4-(diisobutylamino)-2′-(1H-tetrazol-5-yl)-[1,1′-biphenyl]-3-yl)-3-isopropylurea], the IC50 (in general, the concentration that gives 50% inhibition) was determined as 1220 nM.

`CC(C)CN(CC(C)C)c1ccc(-c2ccccc2-c2nnn[nH]2)cc1NC(=O)Nc1cccc2cnccc12` [Example 247, 1-(4-(diisobutylamino)-2′-(1H-tetrazol-5-yl)-[1,1′-biphenyl]-3-yl)-3-(isoquinolin-5-yl)urea] yielded a 50% inhibitory concentration (IC50) of 2760 nM. This IC50 is about 2.3-fold higher than that of the compound before. `CNC(=O)c1ccccc1NC(=O)Nc1cc(-c2ccccc2-c2nnn[nH]2)ccc1N(CC(C)C)CC(C)C` [Example 248, 2-(3-(4-(diisobutylamino)-2′-(1H-tetrazol-5-yl)-[1,1′-biphenyl]-3-yl)ureido)-N-methylbenzamide] showed a half-inhibitory concentration (IC50) of 5070 nM. Take `CC(C)CN(CC(C)C)c1ccc(-c2ccccc2-c2nnn[nH]2)cc1NC(=O)Nc1ccc(C(F)(F)F)cc1` [Example 249]: the IC50 turned out to be 140 nM. Regarding `CC(C)CN(CC(C)C)c1ccc(-c2ccccc2-c2nnn[nH]2)cc1NC(=O)Nc1ccc(F)c(C#N)c1` [Example 250, 1-(3-Cyano-4-fluorophenyl-3-(4-diisobutylamino)-2′-(1H-tetrazol-5-yl)-[1,1′-biphenyl]-3-yl)urea], half-maximal inhibition (IC50) required 930 nM. Compared with the last compound, the IC50 is about 6.6-fold higher. The compound `CC(C)CN(CC(C)C)c1ccc(-c2ccccc2-c2nnn[nH]2)cc1NC(=O)Nc1cc(F)cc(Cl)c1` [Example 251, 1-(3-chloro-5-fluorophenyl)-3-(4-(diisobutylamino)-2′-(1H-tetrazol-5-yl)-[1,1′-biphenyl]-3-yl)urea] came in with a half-maximal inhibitory concentration (IC50) of 90 nM. In the case of `COc1cc(NC(=O)Nc2cc(-c3ccccc3-c3nnn[nH]3)ccc2N(CC(C)C)CC(C)C)ccc1F` [Example 252, 1-(4-(diisobutylamino)-2′-(1H-tetrazol-5-yl)-[1,1′-biphenyl]-3-yl)-3-(4-fluoro-3-methoxyphenyl)urea], half-maximal inhibition (IC50) required 1230 nM. Take `CC(C)CN(CC(C)C)c1ccc(-c2ccccc2-c2nnn[nH]2)cc1NC(=O)Nc1cccc(-c2cnco2)c1` [Example 253, 1-(4-(diisobutylamino)-2′-(1H-tetrazol-5-yl)-[1,1′-biphenyl]-3-yl)-3-(3-(oxazol-5-yl)phenyl)urea]: half-maximal inhibition (IC50) required 2490 nM. `CC(C)CN(CC(C)C)c1ccc(-c2ccccc2-c2nnn[nH]2)cc1NC(=O)Nc1cc(C(N)=O)ccc1Cl` [Example 254, 4-chloro-3-(3-(4-(diisobutylamino)-2′-(1H-tetrazol-5-yl)-[1,1′-biphenyl]-3-yl)ureido)benzamide] came in with an IC50 of 6070 nM. To `CC(C)CN(CC(C)C)c1ccc(-c2ccccc2-c2nnn[nH]2)cc1NC(=O)Nc1ccc(-c2cnco2)cc1` [Example 255, 1-(4-(diisobutylamino)-2′-(1H-tetrazol-5-yl)-[1,1′-biphenyl]-3-yl)-3-(4-(oxazol-5-yl)phenyl)urea] belongs 30 nM; to `CC(C)CN(CC(C)C)c1ccc(-c2ccccc2-c2nnn[nH]2)cc1NC(=O)Nc1ccccc1-n1cncn1` [Example 256, 1-(2-(1H-1,2,4-triazol-1-yl)phenyl)-3-(4-(diisobutylamino)-2′-(1H-tetrazol-5-yl)-[1,1′-biphenyl]-3-yl)urea], 4180 nM; to `CC(C)CN(CC(C)C)c1ccc(-c2ccccc2-c2nnn[nH]2)cc1NC(=O)Nc1cccc(N=[N+]=[N-])c1` [Example 257, 1-(3-azidophenyl)-3-(4-(diisobutylamino)-2′-(1H-tetrazol-5-yl)-[1,1′-biphenyl]-3-yl)urea], 2.73 nM.

In the case of `CC(C)CN(CC(C)C)c1ccc(-c2ccccc2-c2nnn[nH]2)cc1NC(=O)Nc1ccc(F)c(Br)c1` [Example 258, 1-(3-bromo-4-fluorophenyl)-3-(4-(diisobutylamino)-2′-(1H-tetrazol-5-yl)-[1,1′-biphenyl]-3-yl)urea], 90 nM corresponded to half-maximal inhibition (IC50). As to `CC(C)CN(CC(C)C)c1ccc(-c2ccccc2-c2nnn[nH]2)cc1NC(=O)Nc1ccc2sccc2c1` [Example 259, 1-(benzo[b]thiophen-5-yl)-3-(4-(diisobutylamino)-2′-(1H-tetrazol-5-yl)-[1,1′-biphenyl]-3-yl)urea], half-maximal inhibition (IC50) was put at 2.44 nM. Against the preceding compound, the IC50 is about 37-fold lower. To `CC(C)CN(CC(C)C)c1ccc(-c2ccccc2-c2nnn[nH]2)cc1NC(=O)Nc1ccc(C#N)cc1F` [Example 260] belongs 6.48 nM; to `COc1cc(NC(=O)Nc2cc(-c3ccccc3-c3nnn[nH]3)ccc2N(CC(C)C)CC(C)C)ccc1C#N` [Example 261, 1-(4-cyano-3-methoxyphenyl)-3-(4-(diisobutylamino)-2′-(1H-tetrazol-5-yl)-[1,1′-biphenyl]-3-yl)urea], 4310 nM. To `CC(C)CN(CC(C)C)c1ccc(-c2ccccc2-c2nnn[nH]2)cc1NC(=O)Nc1cccc(N(C)C)c1` [Example 262, 1-(4-(diisobutylamino)-2′-(1H-tetrazol-5-yl)-[1,1′-biphenyl]-3-yl)-3-(3-(dimethylamino)phenyl)urea] belongs 190 nM; to `CC(C)CN(CC(C)C)c1ccc(-c2ccccc2-c2nnn[nH]2)cc1NC(=O)Nc1cccc(F)c1F` [Example 263, 1-(2,3-difluorophenyl)-3-(4-(diisobutylamino)-2′-(1H-tetrazol-5-yl)-[1,1′-biphenyl]-3-yl)urea], 7.97 nM. Consider `Cc1ccc(NC(=O)Nc2cc(-c3ccccc3-c3nnn[nH]3)ccc2N(CC(C)C)CC(C)C)c(F)c1` [Example 264, 1-(4-(diisobutylamino)-2′-(1H-tetrazol-5-yl)-[1,1′-biphenyl]-3-yl)-3-(2-fluoro-4-methylphenyl)urea], for which the IC50 was 2.61 nM. On to `CC(C)CN(CC(C)C)c1ccc(-c2ccccc2-c2nnn[nH]2)cc1NC(=O)Nc1cccc(S(N)(=O)=O)c1` [Example 266, 3-(3-(4-(diisobutylamino)-2′-(1H-tetrazol-5-yl)-[1,1′-biphenyl]-3-yl)ureido) benzenesulfonamide], for which the IC50 is 4490 nM. In turn, `CC(C)CN(CC(C)C)c1ccc(-c2ccccc2-c2nnn[nH]2)cc1NC(=O)Nc1cccc(-n2ccnc2)c1` [Example 267, 1-(3-(1H-imidazol-1-yl)phenyl)-3-(4-(diisobutylamino)-2′-(1H-tetrazol-5-yl)-[1,1′-biphenyl]-3-yl)urea] gave a concentration for half-maximal inhibition (IC50) of 1460 nM. The result for `CC(C)CN(CC(C)C)c1ccc(-c2ccccc2-c2nnn[nH]2)cc1NC(=O)NCC1CCCCC1` [Example 268, 1-(cyclohexylmethyl)-3-(4-(diisobutylamino)-2′-(1H-tetrazol-5-yl)-[1,1′-biphenyl]-3-yl)urea] reads 830 nM; that for `C#CCOc1ccccc1NC(=O)Nc1cc(-c2ccccc2-c2nnn[nH]2)ccc1N(CC(C)C)CC(C)C` [Example 269, 1-(4-(diisobutylamino)-2′-(2H-tetrazol-5-yl)-[1,1′-biphenyl]-3-yl)-3-(2-(prop-2-yn-1-yloxy)phenyl)urea], 250 nM; that for `CC(C)CN(CC(C)C)c1ccc(-c2ccccc2-c2nnn[nH]2)cc1NC(=O)Nc1ccccc1N1CCCCC1` [Example 270, 2-(4-(diisobutylamino)-2′-(1H-tetrazol-5-yl)-[1,1′-biphenyl]-3-yl)-3-(2-(piperidin-1-yl)phenyl)urea], 1830 nM. The result for `CC(C)CN(CC(C)C)c1ccc(-c2ccccc2-c2nnn[nH]2)cc1NC(=O)Nc1ccc(F)c(C(F)(F)F)c1` [Example 271, 1-(4-(diisobutylamino)-2′-(1H-tetrazol-5-yl)-[1,1′-biphenyl]-3-yl)-3-(4-fluoro-3-(trifluoromethyl)phenyl) urea] reads 1010 nM; that for `CC(C)CN(CC(C)C)c1ccc(-c2ccccc2-c2nnn[nH]2)cc1NC(=O)Nc1ccc(F)cc1OC(C)C` [Example 272, 1-(4-(diisobutylamino)-2′-(1H-tetrazol-5-yl)-[1,1′-biphenyl]-3-yl)-3-(4-fluoro-2-isopropoxyphenyl)urea], 2720 nM; that for `CC(C)CN(CC(C)C)c1ccc(-c2ccccc2-c2nnn[nH]2)cc1NC(=O)Nc1cccc(OC(F)(F)F)c1` [Example 273, 1-(4-(diisobutylamino)-2′-(1H-tetrazol-5-yl)-[1,1′-biphenyl]-3-yl)-3-(3-(trifluoromethoxy)phenyl)urea], 180 nM. Turning to `CC(C)CN(CC(C)C)c1ccc(-c2ccccc2-c2nnn[nH]2)cc1NC(=O)Nc1ccccc1C1CC1` [Example 274, 1-(2-cyclopropylphenyl)-3-(4-(diisobutylamino)-2′-(1H-tetrazol-5-yl)-[1,1′-biphenyl]-3-yl)urea], the midpoint of inhibition, the IC50, lay at 460 nM.

Turning to `CC(C)CN(CC(C)C)c1ccc(-c2ccccc2-c2nnn[nH]2)cc1NC(=O)Nc1cccc(F)c1O` [Example 275, 1-(4-(diisobutylamino)-2′-(1H-tetrazol-5-yl)-[1,1′-biphenyl]-3-yl)-3-(3-fluoro-2-hydroxyphenyl)urea], half-maximal inhibition (IC50) was put at 500 nM. Regarding `CC(C)CN(CC(C)C)c1ccc(-c2ccccc2-c2nnn[nH]2)cc1NC(=O)Nc1cccc2c1CCC2` [Example 276, 1-(2,3-dihydro-1H-inden-4-yl)-3-(4-(diisobutylamino)-2′-(1H-tetrazol-5-yl)-[1,1′-biphenyl]-3-yl)urea], inhibition was half-maximal at 780 nM (IC50). `C#Cc1ccccc1NC(=O)Nc1cc(-c2ccccc2-c2nnn[nH]2)ccc1N(CC(C)C)CC(C)C` [Example 277, 1-(4-(diisobutylamino)-2′-(1H-tetrazol-5-yl)-[1,1′-biphenyl]-3-yl)-3-(2-ethynylphenyl)urea] returned an IC50 of 160 nM. `C#Cc1ccc(NC(=O)Nc2cc(-c3ccccc3-c3nnn[nH]3)ccc2N(CC(C)C)CC(C)C)cc1` [Example 278, 1-(4-(diisobutylamino)-2′-(1H-tetrazol-5-yl)-[1,1′-biphenyl]-3-yl)-3-(4-ethynylphenyl)urea] displayed a half-inhibitory concentration (IC50) of 1.31 nM.

In turn, `CC(C)CN(CC(C)C)c1ccc(-c2ccccc2-c2nnn[nH]2)cc1NC(=O)Nc1ccc(F)c(S(C)(=O)=O)c1` [Example 279, 1-(4-(diisobutylamino)-2′-(1H-tetrazol-5-yl)-[1,1′-biphenyl]-3-yl)-3-(4-fluoro-3-(methylsulfonyl)phenyl) urea] gave a concentration for half-maximal inhibition (IC50) of 5050 nM. Compared with the last compound, the IC50 is about 3900-fold higher. For the compound `CC(C)CN(CC(C)C)c1ccc(-c2ccccc2-c2nnn[nH]2)cc1NC(=O)Nc1ccccc1OC(F)F` [Example 280, 1-(2-(difluoromethoxy)phenyl)-3-(4-(diisobutylamino)-2′-(1H-tetrazol-5-yl)biphenyl-3-yl)urea], half-maximal inhibition (IC50) required 2390 nM.
